# Legend:
# [1] = test system: acute peritonitis induced by zymosan A in mice; experiment: Zymosan A-induced acute peritonitis in mice: IL-1β, IL-6 and neutrophil accumulation; type: in vivo; conditions: 1 mg/kg intraperitoneal 30 minutes before zymosan, 12 hours, N=6
# Protocol: Acute peritonitis was induced by the injection of 1 mg zymosan A (Sigma-Aldrich) i.p. in 0.5 ml sterile PBS in mice. Twelve hours later the mice were sacrificed by CO2 exposure, and peritoneal cavities were washed with 4 ml ice-cold PBS containing 3 mM EDTA. Cells were stained with Turk's solution (0.01% crystal violet in 3% acetic acid) and counted using a Neubauer hemocytometer or were stained with FITC-conjugated mAb for Ly-6G/Gr1, F4/80, and corresponding isotype controls (eBioscience, Hatfield, U.K.), and subjected to flow-cytometry analysis using a BD FACSCalibur platform (BD Biosciences, Oxford, U.K.). Levels of IL-1B and IL-6 in quick frozen samples were quantified according to the manufacturer's instructions using ELISA Ready-SET-Go! (eBioscience). All animal studies were approved by and performed under the guidelines of the Ethical Committee for the Use of Animals, Barts and The London School of Medicine and Home Office regulations (Guidance on the Operation of Animals, Scientific Procedures Act, 1986). Male (7-8 wk old) C57BL/6J wild-type (WT) mice were purchased from Charles River Laboratories. Test Item A, 1 mg/kg or vehicle treatment were given intraperitoneal 30 minutes before induction of the acute peritonitis. N=6 for in both groups.
# [2] = Phase I repeated dose study, peak and trough concentrations at steady conditions; type: in vivo, human; conditions: 200 mg once daily
# [3] = test system: early rheumatoid arthritis (RA) patients with active joint disease; experiment: Phase IIa placebo-controlled study in early rheumatoid arthritis patients: CDAI; type: in vivo, human; conditions: for CDAI group mean, Baseline / CDAI group mean, Screening / CDAI group mean, Week 4 / CDAI group mean, Week 2 / CDAI group mean, Week 5 / CDAI Difference / CDAI Difference in %: n = 31; for CDAI group mean, Baseline / CDAI group mean, Screening: before treatment; for CDAI group mean, Week 4: end of treatment; for CDAI group mean, Week 2: mid-treatment; for CDAI group mean, Week 5: one week follow-up after last dosage; for CDAI Difference / CDAI Difference in %: week 4 vs baseline
# Protocol: (§1) The study population will consist of newly diagnosed subjects with severe active RA (CDAI (Clinical disease activity score)>22) who are to start up-titration with methotrexate (MTX).
# The doses used in this Example are calculated based on the specific acetate salt form.
# The study population will consist of newly diagnosed subjects with severe active RA (CDAI >22) who are to start up-titration with MTX. A minimum of 90 subjects are expected to complete the study; plus 45 subjects from Bulgaria and/or Moldova for a sub-study. Up to 120 subjects are planned to be enrolled to account for discontinuation rate, and up to 60 subjects for the sub-study.
# The CDAI is a clinical composite score for following patients with RA.
# Descriptive changes in CDAI where CDAI=SJC (28)+TJC (28)+PGA+IGA; • SJC (28): Swollen 28-Joint Count (shoulders, elbows, wrists, MCPs, PIPs including thumb IP, knees); • TJC (28): Tender 28-Joint Count (shoulders, elbows, wrists, MCPs, PIPs including thumb IP, knees); • PGA: Patient Global Disease Activity (patient's self-assessment of overall RA disease activity on a scale 0-100 where 100 is maximal activity); • IGA: Physician's Global Disease Activity (evaluator's assessment of the subject's overall RA disease activity on a scale 0-100 where 100 is maximal activity)
# The CDAI will be scored at screening, baseline, after 2 weeks and 4 weeks treatment, and at the final visit (one week after final dose).
# [4] = Phase IIa study in early RA patients: blood pressure and clinically notable vital sign abnormalities; type: in vivo, human; conditions: for MAP Average/Median: MAP = DAP + ⅓(SAP − DAP); for CNA (clinically notable vital sign abnormalities): SAP ≥160, <90, DAP ≥105, <50
# Excerpt: as §1
# Safety measures (AEs, SAEs, including laboratory abnormalities and vital signs such as blood pressure) will be registered during the whole study duration.
# MC1R = conditions: cited from earlier work
# MC3R = conditions: cited from earlier work
# macrophages = conditions: cited from earlier work
# melanocytes = conditions: cited from earlier work
# peritonitis = conditions: oral; cited from earlier work
# [5] = test system: experimental inflammatory arthritis; conditions: oral; cited from earlier work
# [6] = 50 mg AP1189 once daily plus MTX
# [7] = 100 mg AP1189 once daily plus MTX
smiles,measurement,setting,value
"NC(N)=N/N=C/C=C/c1cccn1-c1ccccc1[N+](=O)[O-] [AP1189, (E)-N-trans-{3-[1-(2-nitrophenyl)-1H-pyrrol-2-yl]-allylidene}-aminoguanidium acetate]",reduction of neutrophil accumulation compared to pretreatment with vehicle,[1],70%
same,reduction of IL-1β levels compared to pretreatment with vehicle,[1]; p<0.05 vs vehicle,37%
same,reduction of IL-6 levels compared to pretreatment with vehicle,[1]; p<0.05 vs vehicle,59%
same,"C Trough (Mean +/− SD, N = 9)",[2],186 ± 45 ng/mL
same,"CDAI group mean, Baseline",[3]; [6],36.1
same,"CDAI group mean, Screening",[3]; [6],35.6
same,"CDAI group mean, Week 4",[3]; [6],24.2
same,"CDAI group mean, Week 2",[3]; [6],29.9
same,"CDAI group mean, Week 5",[3]; [6],22.9
same,CDAI Difference,[3]; [6],−11.9
same,CDAI Difference in %,[3]; [6],33%
same,"CDAI group mean, Baseline",[3]; [7],39
same,"CDAI group mean, Screening",[3]; [7],38.9
same,"CDAI group mean, Week 4",[3]; [7],23.9
same,"CDAI group mean, Week 2",[3]; [7],28.9
same,"CDAI group mean, Week 5",[3]; [7],21.3
same,CDAI Difference,[3]; [7],−15.1
same,CDAI Difference in %,[3]; [7],39%
same,effect in reducing CDAI,"[3]; both tested dosages, 50 mg and 100 mg",significant effect
same,DAP Average/Median,"[4]; 50 mg AP1189, 4 Weeks, n 33",79.9 mmHg
same,SAP Average/Median,"[4]; 50 mg AP1189, 4 Weeks, n 33",129.1 mmHg
same,MAP Average/Median,"[4]; 50 mg AP1189, 4 Weeks, n 33",96.3 mmHg
same,CNA (clinically notable vital sign abnormalities),"[4]; 50 mg AP1189, 4 Weeks, n 33",2 (6%)
same,DAP Average/Median,"[4]; 50 mg AP1189, Base Line, n 33",80.0 mmHg
same,SAP Average/Median,"[4]; 50 mg AP1189, Base Line, n 33",131.3 mmHg
same,MAP Average/Median,"[4]; 50 mg AP1189, Base Line, n 33",97.1 mmHg
same,CNA (clinically notable vital sign abnormalities),"[4]; 50 mg AP1189, Base Line, n 33",4 (11%)
same,decrease in DAP after 4 weeks treatment,[4]; 50 mg AP1189 group,0.1 mmHg
same,decrease in MAP after 4 weeks treatment,[4]; 50 mg AP1189 group,0.8 mmHg
same,decrease in SAP after 4 weeks treatment,[4]; 50 mg AP1189 group,2.2 mmHg
same,DAP Average/Median,"[4]; 100 mg AP1189, 4 Weeks, n 34",80.3 mmHg
same,SAP Average/Median,"[4]; 100 mg AP1189, 4 Weeks, n 34",126.8 mmHg
same,MAP Average/Median,"[4]; 100 mg AP1189, 4 Weeks, n 34",95.8 mmHg
same,CNA (clinically notable vital sign abnormalities),"[4]; 100 mg AP1189, 4 Weeks, n 34",1 (3%)
same,DAP Average/Median,"[4]; 100 mg AP1189, Base Line, n 34",81.1 mmHg
same,SAP Average/Median,"[4]; 100 mg AP1189, Base Line, n 34",129.9 mmHg
same,MAP Average/Median,"[4]; 100 mg AP1189, Base Line, n 34",97.4 mmHg
same,CNA (clinically notable vital sign abnormalities),"[4]; 100 mg AP1189, Base Line, n 34",4 (11%)
same,decrease in DAP after 4 weeks treatment,[4]; 100 mg AP1189 group,0.8 mmHg
same,decrease in MAP after 4 weeks treatment,[4]; 100 mg AP1189 group,1.6 mmHg
same,decrease in SAP after 4 weeks treatment,[4]; 100 mg AP1189 group,3.1 mmHg
same,number of observed abnormalities in blood pressure,"[4]; both treatment groups (50 mg and 100 mg), 4 weeks, no change in placebo group",reduced
same,ERK1/2 phosphorylation,MC1R; MC1R,cause ERK1/2 phosphorylation
same,canonical cAMP generation,MC1R; MC1R,does not induce canonical CAMP generation
same,agonist character at MC1R,MC1R,biased agonist
same,ERK1/2 phosphorylation,MC3R; MC3R,cause ERK1/2 phosphorylation
same,canonical cAMP generation,MC3R; MC3R,does not induce canonical CAMP generation
same,agonist character at MC3R,MC3R,biased agonist
same,cytokine release,macrophages,reduce cytokine release
same,melanogenesis,melanocytes,no melanogenesis was induced
same,anti-inflammatory action in peritonitis,peritonitis,elicits anti-inflammatory actions
same,macroscopic and histological parameters of joint disruption,[5],significant reduction
